In US9012640B2, “Cabergoline derivatives” (MAP Pharmaceuticals, Inc., priority 2012, dated 2015):
Where two headings read alike, the source gives them in different places.

Experiments:
[1] = molecular target: T1, serotonin receptor 5-HT1D (Homo sapiens, UniProt P28221); conditions: cited from earlier work
[2] = molecular target: T2, Recombinant human serotonin receptor 5-HT2A (Homo sapiens, UniProt P28223); conditions: reported, Newman-Tancredi et al. 2002; read-out: reported EC50 on 5-HT2A receptors; cited from earlier work
T2 construct: expressed in transfected cells; host or cells: CHO-K1 (coexpressing mitochondrial apoaequorin)
T2 sequence (P28223 whole entry): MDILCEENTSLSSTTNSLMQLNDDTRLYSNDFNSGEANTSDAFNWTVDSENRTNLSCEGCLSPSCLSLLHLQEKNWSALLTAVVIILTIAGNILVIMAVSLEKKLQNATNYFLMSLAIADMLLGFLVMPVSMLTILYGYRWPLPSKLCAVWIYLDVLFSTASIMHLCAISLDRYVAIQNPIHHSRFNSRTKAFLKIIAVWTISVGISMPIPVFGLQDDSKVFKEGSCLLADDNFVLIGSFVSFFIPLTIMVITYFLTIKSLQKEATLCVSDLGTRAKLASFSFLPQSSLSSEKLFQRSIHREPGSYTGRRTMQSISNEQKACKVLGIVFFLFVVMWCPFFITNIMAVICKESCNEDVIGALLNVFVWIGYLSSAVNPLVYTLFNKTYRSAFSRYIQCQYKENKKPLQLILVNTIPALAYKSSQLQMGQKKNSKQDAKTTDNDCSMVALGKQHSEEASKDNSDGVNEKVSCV

[3] = molecular target: T3, serotonin receptor 5-HT1B (Homo sapiens, UniProt P28222); conditions: read-out: EC50 on 5-HT1B receptors, reported; Newman-Tancredi et al. 2002; cited from earlier work
T3 sequence (P28222 whole entry): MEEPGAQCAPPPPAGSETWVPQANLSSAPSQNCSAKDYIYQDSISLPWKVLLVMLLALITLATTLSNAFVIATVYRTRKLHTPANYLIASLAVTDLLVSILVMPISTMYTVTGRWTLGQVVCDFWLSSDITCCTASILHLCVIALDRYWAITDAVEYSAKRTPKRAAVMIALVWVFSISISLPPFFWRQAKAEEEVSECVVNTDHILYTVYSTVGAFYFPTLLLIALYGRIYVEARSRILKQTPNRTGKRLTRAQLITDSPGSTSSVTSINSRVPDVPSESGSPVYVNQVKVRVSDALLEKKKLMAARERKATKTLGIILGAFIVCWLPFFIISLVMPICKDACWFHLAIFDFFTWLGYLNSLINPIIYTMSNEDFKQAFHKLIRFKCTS

[4] = molecular target: T4, Recombinant human dopaminergic receptor D4 (Homo sapiens, UniProt P21917); conditions: cited from earlier work
T4 sequence (P21917 1-419): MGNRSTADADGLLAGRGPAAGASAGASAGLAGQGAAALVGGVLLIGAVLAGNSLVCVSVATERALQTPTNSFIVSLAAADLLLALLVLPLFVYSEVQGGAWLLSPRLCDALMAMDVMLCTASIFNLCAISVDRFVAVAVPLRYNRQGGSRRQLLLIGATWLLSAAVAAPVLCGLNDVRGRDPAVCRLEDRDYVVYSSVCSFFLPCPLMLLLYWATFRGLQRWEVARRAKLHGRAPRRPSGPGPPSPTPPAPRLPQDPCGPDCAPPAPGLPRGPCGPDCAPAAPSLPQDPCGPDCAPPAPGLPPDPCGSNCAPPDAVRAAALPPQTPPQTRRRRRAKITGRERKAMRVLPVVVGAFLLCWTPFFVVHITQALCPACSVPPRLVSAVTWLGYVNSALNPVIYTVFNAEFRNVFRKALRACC

[5] = molecular target: T5, Recombinant human serotonin receptor 5-HT2B (Homo sapiens, UniProt P41595); conditions: reported, Newman-Tancredi et al. 2002; read-out: reported EC50 on 5-HT2B receptors; cited from earlier work
T5 construct: expressed in transfected cells; host or cells: CHO-K1 (coexpressing mitochondrial apoaequorin)
T5 sequence (P41595 whole entry): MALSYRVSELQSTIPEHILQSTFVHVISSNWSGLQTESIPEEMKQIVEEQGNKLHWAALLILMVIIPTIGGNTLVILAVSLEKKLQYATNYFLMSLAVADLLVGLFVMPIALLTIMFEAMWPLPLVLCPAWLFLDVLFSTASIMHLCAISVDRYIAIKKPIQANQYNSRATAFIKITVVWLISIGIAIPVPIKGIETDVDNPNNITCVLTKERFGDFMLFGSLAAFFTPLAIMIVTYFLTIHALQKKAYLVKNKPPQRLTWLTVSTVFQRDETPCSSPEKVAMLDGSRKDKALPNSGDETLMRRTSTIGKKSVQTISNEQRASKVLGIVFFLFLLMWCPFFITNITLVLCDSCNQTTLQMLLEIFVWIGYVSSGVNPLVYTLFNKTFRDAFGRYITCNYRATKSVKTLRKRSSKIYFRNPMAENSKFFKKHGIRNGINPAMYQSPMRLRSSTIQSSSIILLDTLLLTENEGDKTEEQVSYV

[6] = molecular target: Recombinant human dopaminergic receptor D2L (Homo sapiens, UniProt P14416); assay: GTPγS functional assay; assay type: biochemical; conditions: read-out: EC50, agonist activity with the D2L receptor
Chain of Recombinant human dopaminergic receptor D2L (P14416 whole entry): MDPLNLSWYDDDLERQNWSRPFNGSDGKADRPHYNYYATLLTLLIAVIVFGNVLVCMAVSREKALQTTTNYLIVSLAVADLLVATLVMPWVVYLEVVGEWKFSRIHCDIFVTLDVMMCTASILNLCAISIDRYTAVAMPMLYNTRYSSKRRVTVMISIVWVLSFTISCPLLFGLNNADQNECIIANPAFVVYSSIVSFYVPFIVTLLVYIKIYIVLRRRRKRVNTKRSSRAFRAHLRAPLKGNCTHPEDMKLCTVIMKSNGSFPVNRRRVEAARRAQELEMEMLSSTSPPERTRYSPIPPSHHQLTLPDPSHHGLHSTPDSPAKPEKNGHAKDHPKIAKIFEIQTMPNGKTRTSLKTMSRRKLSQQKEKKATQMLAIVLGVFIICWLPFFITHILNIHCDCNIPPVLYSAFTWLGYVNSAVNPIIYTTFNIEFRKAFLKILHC
Description: (§1) Recombinant human dopaminergic receptor D1, D2L, and D4 and serotonin receptor 5-HT1B and 5-HTID activity was assayed using a GTPΥS functional assay with Compound 1 at concentrations between 0.01 nM and 10,000 nM.

[7] = molecular target: T1, serotonin receptor 5-HT1D; assay: GTPγS functional assay; assay type: biochemical
Description: as §1

[8] = molecular target: Recombinant human dopaminergic receptor D1 (Homo sapiens, UniProt P21728); assay: GTPγS functional assay; assay type: biochemical
Chain of Recombinant human dopaminergic receptor D1 (P21728 whole entry): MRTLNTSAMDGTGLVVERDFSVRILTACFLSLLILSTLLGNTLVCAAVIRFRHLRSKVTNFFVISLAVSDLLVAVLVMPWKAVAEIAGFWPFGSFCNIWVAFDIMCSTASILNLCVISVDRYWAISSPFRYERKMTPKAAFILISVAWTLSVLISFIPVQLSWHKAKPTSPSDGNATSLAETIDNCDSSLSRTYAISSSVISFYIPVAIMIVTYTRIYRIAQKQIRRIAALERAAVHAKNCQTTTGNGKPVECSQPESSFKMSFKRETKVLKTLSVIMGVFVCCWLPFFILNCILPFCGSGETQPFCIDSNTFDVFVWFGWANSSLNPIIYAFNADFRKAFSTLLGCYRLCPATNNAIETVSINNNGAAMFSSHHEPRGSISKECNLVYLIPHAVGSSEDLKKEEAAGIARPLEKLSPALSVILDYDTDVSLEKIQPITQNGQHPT
Description: as §1

[9] = molecular target: T3, serotonin receptor 5-HT1B; assay: GTPγS functional assay; assay type: biochemical; conditions: 0.01 nM to 10,000 nM
Description: as §1

[10] = molecular target: T4, Recombinant human dopaminergic receptor D4; assay: GTPγS functional assay; assay type: biochemical
Description: as §1

[11] = molecular target: T2, Recombinant human serotonin receptor 5-HT2A; assay: Aequorin assay, receptor agonist/antagonist activity, CHO-K1 cells; assay type: cell-based
Description: (§2) Compound 1 was synthesized as described above and assayed for receptor activity against a panel of dopaminergic and serotoninergic receptors. Recombinant human serotonin receptors 5-HT2A, and 5-HT2B were expressed in CHO-K1 cells and activity (receptor agonist/antagonist activity) was assayed using an Aequorin assay (coexpression of mitochondrial apoaequorin). Compound 1 was used at a concentration of 0.010 nM to 20,000 nM for agonist activity and 0.005 nM to 10,000 nM for antagonist activity.

[12] = molecular target: T5, Recombinant human serotonin receptor 5-HT2B; assay: as above; assay type: cell-based
Description: as §2

T1 sequence (P28221 whole entry): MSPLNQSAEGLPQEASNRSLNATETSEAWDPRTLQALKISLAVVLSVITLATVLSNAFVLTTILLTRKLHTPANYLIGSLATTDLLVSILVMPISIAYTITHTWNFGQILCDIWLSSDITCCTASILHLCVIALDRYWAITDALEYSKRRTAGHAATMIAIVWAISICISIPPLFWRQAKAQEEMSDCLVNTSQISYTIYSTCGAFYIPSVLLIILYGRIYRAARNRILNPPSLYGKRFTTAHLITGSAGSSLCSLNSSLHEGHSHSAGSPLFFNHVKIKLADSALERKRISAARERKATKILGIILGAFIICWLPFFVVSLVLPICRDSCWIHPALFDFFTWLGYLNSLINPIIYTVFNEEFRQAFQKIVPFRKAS

C=CCN1C[C@H](C(=O)N(CCCN(C)C)C(=O)NCC)C[C@@H]2c3cccc4[nH]cc(c34)C[C@H]21 [cabergoline, Cabergoline]
EC50 ([1]; Newman-Tancredi et al. 2002, read-out: EC50 on 5-HT1D receptors, reported): 16 nM | Emax on 5-HT1D receptors, cabergoline comparison ([1]; comparison value for cabergoline): 68% | EC50 [2]: 7.8 nM | EC50 [3]: 2240 nM | D2L to D4 receptor selectivity, reported ([4]; reported results for cabergoline): ~200 fold | Emax, reported ([4]; reported values, Newman-Tancredi et al. 2002, receptor not given): 49% | EC50 [5]: 2.6 nM

C=CCN1C[C@H](C(=O)N(CCCN(C)C)C(=O)NCC)C[C@@H]2c3cccc4[nH]c(C(F)(F)F)c(c34)C[C@H]21 [Compound 1]
EC50 [6]: 12.6 nM | agonist activity on serotonin receptor 5-HT1D in words [7]: weak agonist activity | EC50 ([7]; GTPγS, read-out: EC50, agonist on 5-HT1D receptors): 263 nM | Emax ([7]; GTPγS, read-out: Emax on 5-HT1D receptors): 31% | selectivity for the D2L receptor over the D1 receptor [8]: approximately 110 fold | activity on 5-HT1B receptors [9]: not active | Emax ([10]; GTPγS, receptor not given, follows the D2L/D4 comparison): 26% | D2L to D4 receptor selectivity ([10]; when comparing EC50): 18 fold | EC50 ([11]; agonist activity, Aequorin assay, CHO-K1, read-out: EC50 on 5-HT2A receptors): 946 nM | 5-HT2A receptor agonist activity in words ([11]; as compared to cabergoline): weak | EC50 ([12]; agonist activity, Aequorin assay, CHO-K1, read-out: EC50 on 5-HT2B receptors): 6050 nM | 5-HT2B receptor agonist activity in words ([12]; as compared to cabergoline): weak
